Source: US10010624B2, “Pyrrolobenzodiazepine-antibody conjugates” (MEDIMMUNE LIMITED, priority 2013, dated 2018)

Test system: K562 human chronic myeloid leukaemia cells
Assay: K562 assay (MTT cytotoxicity of released compounds)
Type: cell-based
Conditions: drug incubation 1 hour or 96 hours (not specified which), MTT readout, dose reducing optical density to 50% of control
Experimental: K562 human chronic myeloid leukaemia cells were maintained in RPM1 1640 medium supplemented with 10% fetal calf serum and 2 mM glutamine at 37° C. in a humidified atmosphere containing 5% CO2 and were incubated with a specified dose of drug for 1 hour or 96 hours at 37° C. in the dark. The incubation was terminated by centrifugation (5 min, 300 g) and the cells were washed once with drug-free medium. Following the appropriate drug treatment, the cells were transferred to 96-well microtiter plates (10^4 cells per well, 8 wells per sample). Plates were then kept in the dark at 37° C. in a humidified atmosphere containing 5% CO2. The assay is based on the ability of viable cells to reduce a yellow soluble tetrazolium salt, 3-(4,5-dimethylthiazol-2-yl)-2,5-diphenyl-2H-tetrazolium bromide (MTT, Aldrich-Sigma), to an insoluble purple formazan precipitate. Following incubation of the plates for 4 days (to allow control cells to increase in number by approximately 10 fold), 20 μL of MTT solution (5 mg/mL in phosphate-buffered saline) was added to each well and the plates further incubated for 5 h. The plates were then centrifuged for 5 min at 300 g and the bulk of the medium pipetted from the cell pellet leaving 10-20 μL per well. […] The optical density was then read at a wavelength of 550 nm on a Titertek Multiscan ELISA plate reader, and a dose-response curve was constructed. […]

Compound `COc1cc2c(cc1OCCCCCOc1cc3c(cc1OC)C(=O)N1C=C(C)C[C@H]1C=N3)N=C[C@@H]1CC(C)=CN1C2=O` [Compound RelC] has an IC50 of 0.425 nM.
